Laboratory results from the supplement of paper PMC13207355.

How the values were obtained:
Details in all cases: exposure time: 72 h
[1] = tested on: E28 (patient-derived glioblastoma stem cells of classical subtype); assay: surviving fraction (nuclei count normalised to DMSO); higher = more cells surviving (less toxic)
[2] = tested on: E34 (patient-derived glioblastoma stem cells of proneural subtype); assay: as above
[3] = tested on: E13 (patient-derived glioblastoma stem cells of classical subtype); assay: as above
[4] = tested on: E21 (patient-derived glioblastoma stem cells of mesenchymal subtype); assay: as above
[5] = tested on: E57 (patient-derived glioblastoma stem cells of mesenchymal subtype); assay: as above
[6] = tested on: FT3469 (normal neural stem cell line); assay: as above
[7] = tested on: E31 (patient-derived glioblastoma stem cells of proneural subtype); assay: as above
[8] = tested on: E28; assay: phenotypic distance (Euclidean, principal components) from DMSO controls (arbitrary units); higher = stronger morphological change
[9] = tested on: E34; assay: as above
[10] = tested on: E13; assay: as above
[11] = tested on: E21; assay: as above
[12] = tested on: E57; assay: as above
[13] = tested on: FT3469; assay: as above
[14] = tested on: E31; assay: as above
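For phenotypic distance (Euclidean, principal components) from DMSO controls in this document: cell Painting imaging in 384-well plates, CellProfiler features reduced to at least 20 principal components, Euclidean distance versus same-plate DMSO vehicle wells (0.1% v/v), median over six images per well.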
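For surviving fraction (nuclei count normalised to DMSO) in this document: nuclei counted by high-content imaging of Hoechst-stained cells in laminin-coated 384-well plates, relative to 0.1% DMSO vehicle wells, with staurosporine as cell-death control.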

NC(=O)c1ccccc1 [Benzamide]
Details | phenotypic distance | surviving fraction
[1], 4.1 nM | – | 0.82
[1], 12.3 nM | – | 1.08
[1], 37 nM | – | 0.909
[1], 111.1 nM | – | 1.31
[1], 333.3 nM | – | 1.03
[1], 1000 nM | – | 1.09
[1], 3000 nM | – | 1.04
[2], 4.1 nM | – | 1.03
[2], 12.3 nM | – | 0.958
[2], 37 nM | – | 0.993
[2], 111.1 nM | – | 1.04
[2], 333.3 nM | – | 0.904
[2], 1000 nM | – | 1.29
[2], 3000 nM | – | 1.03
[3], 4.1 nM | – | 0.896
[3], 12.3 nM | – | 0.891
[3], 37 nM | – | 0.961
[3], 111.1 nM | – | 1.04
[3], 333.3 nM | – | 1.03
[3], 1000 nM | – | 0.945
[3], 3000 nM | – | 1.04
[4], 4.1 nM | – | 1.03
[4], 12.3 nM | – | 0.945
[4], 37 nM | – | 0.996
[4], 111.1 nM | – | 1.1
[4], 333.3 nM | – | 1.04
[4], 1000 nM | – | 0.872
[4], 3000 nM | – | 1
[5], 4.1 nM | – | 0.938
[5], 12.3 nM | – | 1.06
[5], 37 nM | – | 1.02
[5], 111.1 nM | – | 0.94
[5], 333.3 nM | – | 0.938
[5], 1000 nM | – | 0.896
[5], 3000 nM | – | 0.99
[6], 4.1 nM | – | 0.912
[6], 12.3 nM | – | 1.15
[6], 37 nM | – | 0.999
[6], 111.1 nM | – | 0.863
[6], 333.3 nM | – | 0.935
[6], 1000 nM | – | 0.921
[6], 3000 nM | – | 1.1
[7], 4.1 nM | – | 0.994
[7], 12.3 nM | – | 0.978
[7], 37 nM | – | 0.972
[7], 111.1 nM | – | 1.02
[7], 333.3 nM | – | 0.968
[7], 1000 nM | – | 1.07
[7], 3000 nM | – | 0.947
[8], 4.1 nM | 0.972 | –
[8], 12.3 nM | 1.17 | –
[8], 37 nM | 0.735 | –
[8], 111.1 nM | 1.32 | –
[8], 333.3 nM | 0.871 | –
[8], 1000 nM | 1.28 | –
[8], 3000 nM | 0.95 | –
[9], 4.1 nM | 1.19 | –
[9], 12.3 nM | 0.687 | –
[9], 37 nM | 0.776 | –
[9], 111.1 nM | 1.03 | –
[9], 333.3 nM | 0.862 | –
[9], 1000 nM | 1.13 | –
[9], 3000 nM | 0.579 | –
[10], 4.1 nM | 0.817 | –
[10], 12.3 nM | 0.661 | –
[10], 37 nM | 0.401 | –
[10], 111.1 nM | 0.597 | –
[10], 333.3 nM | 0.747 | –
[10], 1000 nM | 0.669 | –
[10], 3000 nM | 0.437 | –
[11], 4.1 nM | 0.487 | –
[11], 12.3 nM | 0.521 | –
[11], 37 nM | 0.591 | –
[11], 111.1 nM | 1.08 | –
[11], 333.3 nM | 0.913 | –
[11], 1000 nM | 0.784 | –
[11], 3000 nM | 0.381 | –
[12], 4.1 nM | 0.41 | –
[12], 12.3 nM | 0.828 | –
[12], 37 nM | 0.568 | –
[12], 111.1 nM | 0.557 | –
[12], 333.3 nM | 0.555 | –
[12], 1000 nM | 0.56 | –
[12], 3000 nM | 0.478 | –
[13], 4.1 nM | 0.505 | –
[13], 12.3 nM | 1.05 | –
[13], 37 nM | 0.628 | –
[13], 111.1 nM | 1.13 | –
[13], 333.3 nM | 0.522 | –
[13], 1000 nM | 1.07 | –
[13], 3000 nM | 0.83 | –
[14], 4.1 nM | 0.849 | –
[14], 12.3 nM | 1.02 | –
[14], 37 nM | 1.47 | –
[14], 111.1 nM | 1.03 | –
[14], 333.3 nM | 0.83 | –
[14], 1000 nM | 0.791 | –
[14], 3000 nM | 0.951 | –

COc1cc2c(c(OC)c1OC)-c1ccc(OC)c(=O)cc1[C@@H](NC(C)=O)CC2 [Colchicine]
Details | phenotypic distance | surviving fraction
[1], 4.1 nM | – | 0.546
[1], 12.3 nM | – | 0.244
[1], 37 nM | – | 0.335
[1], 111.1 nM | – | 0.295
[1], 333.3 nM | – | 0.291
[1], 1000 nM | – | 0.211
[1], 3000 nM | – | 0.207
[2], 4.1 nM | – | 0.406
[2], 12.3 nM | – | 0.368
[2], 37 nM | – | 0.389
[2], 111.1 nM | – | 0.284
[2], 333.3 nM | – | 0.318
[2], 1000 nM | – | 0.245
[2], 3000 nM | – | 0.267
[3], 4.1 nM | – | 0.247
[3], 12.3 nM | – | 0.187
[3], 37 nM | – | 0.165
[3], 111.1 nM | – | 0.14
[3], 333.3 nM | – | 0.151
[3], 1000 nM | – | 0.152
[3], 3000 nM | – | 0.178
[4], 4.1 nM | – | 0.171
[4], 12.3 nM | – | 0.125
[4], 37 nM | – | 0.133
[4], 111.1 nM | – | 0.137
[4], 333.3 nM | – | 0.136
[4], 1000 nM | – | 0.135
[4], 3000 nM | – | 0.139
[5], 4.1 nM | – | 0.21
[5], 12.3 nM | – | 0.0932
[5], 37 nM | – | 0.105
[5], 111.1 nM | – | 0.119
[5], 333.3 nM | – | 0.0902
[5], 1000 nM | – | 0.0976
[5], 3000 nM | – | 0.0829
[6], 4.1 nM | – | 0.487
[6], 12.3 nM | – | 0.468
[6], 37 nM | – | 0.367
[6], 111.1 nM | – | 0.301
[6], 333.3 nM | – | 0.263
[6], 1000 nM | – | 0.335
[6], 3000 nM | – | 0.229
[7], 4.1 nM | – | 0.131
[7], 12.3 nM | – | 0.0944
[7], 37 nM | – | 0.0551
[7], 111.1 nM | – | 0.0362
[7], 333.3 nM | – | 0.0614
[7], 1000 nM | – | 0.0519
[7], 3000 nM | – | 0.0425
[8], 4.1 nM | 2.89 | –
[8], 12.3 nM | 3.81 | –
[8], 37 nM | 4.44 | –
[8], 111.1 nM | 4.55 | –
[8], 333.3 nM | 5.48 | –
[8], 1000 nM | 4.51 | –
[8], 3000 nM | 5.17 | –
[9], 4.1 nM | 3.32 | –
[9], 12.3 nM | 7.33 | –
[9], 37 nM | 9.15 | –
[9], 111.1 nM | 9.46 | –
[9], 333.3 nM | 7.78 | –
[9], 1000 nM | 7.61 | –
[9], 3000 nM | 10.5 | –
[10], 4.1 nM | 5.49 | –
[10], 12.3 nM | 5.12 | –
[10], 37 nM | 6.59 | –
[10], 111.1 nM | 7.17 | –
[10], 333.3 nM | 8.24 | –
[10], 1000 nM | 7.42 | –
[10], 3000 nM | 7.88 | –
[11], 4.1 nM | 5.8 | –
[11], 12.3 nM | 5.88 | –
[11], 37 nM | 5.7 | –
[11], 111.1 nM | 5.45 | –
[11], 333.3 nM | 5.2 | –
[11], 1000 nM | 5.35 | –
[11], 3000 nM | 4.96 | –
[12], 4.1 nM | 4.26 | –
[12], 12.3 nM | 4.49 | –
[12], 37 nM | 4.46 | –
[12], 111.1 nM | 4.55 | –
[12], 333.3 nM | 4.46 | –
[12], 1000 nM | 4.61 | –
[12], 3000 nM | 5.19 | –
[13], 4.1 nM | 3.51 | –
[13], 12.3 nM | 4.18 | –
[13], 37 nM | 5.37 | –
[13], 111.1 nM | 5.29 | –
[13], 333.3 nM | 4.34 | –
[13], 1000 nM | 5.12 | –
[13], 3000 nM | 4.51 | –
[14], 4.1 nM | 4.44 | –
[14], 12.3 nM | 6.48 | –
[14], 37 nM | 9.95 | –
[14], 111.1 nM | 12.2 | –
[14], 333.3 nM | 11.7 | –
[14], 1000 nM | 10.4 | –
[14], 3000 nM | 12.5 | –
